The results in this text go back to patent publication US9394297B2, “Amides as pim inhibitors” (AMGEN INC., priority 2012, dated 2016).

One assay deals with KMS-12-BM cell lines. In words: KMS12 #2 flow cytometry assay (phospho-BAD Ser112). Type of assay: cell-based. The following applies: Homo sapiens, 110 min; KMS-12-BM cells, pBAD Ser112 by flow cytometry, 110 min with compound; read-out: KMS-12-Flow IC50 IP. A general note: A flow cytometer gives signals particle by particle.
The target in another assay is Pim-1 (Homo sapiens (Human), UniProt P11309). In words: Pim-Mn enzyme assay (HTRF, 384-well), Pim-1. The format is biochemical. The following applies: Pim-1 enzyme 5 pM, ATP 1.5 μM, BAD (S112) 0.5 μM, HTRF, 22-point curve; read-out: Pim-1-Mn IC50 IP. A general note: TR-FRET usually uses a lanthanide donor and a delayed reading to cut background.
Another assay has as its target Pim-2 (Homo sapiens (Human), UniProt Q9P1W9). In words: Pim-Mn enzyme assay (HTRF, 384-well), Pim-2. Type of assay: biochemical. Conditions: Pim-2 enzyme 0.5 pM, ATP 1.5 μM, BAD (S112) 0.5 μM, HTRF, 22-point curve; read-out: Pim-2-Mn IC50 IP.

SMILES strings stand for the structures.

Chain of Pim-2 (Q9P1W9 whole entry): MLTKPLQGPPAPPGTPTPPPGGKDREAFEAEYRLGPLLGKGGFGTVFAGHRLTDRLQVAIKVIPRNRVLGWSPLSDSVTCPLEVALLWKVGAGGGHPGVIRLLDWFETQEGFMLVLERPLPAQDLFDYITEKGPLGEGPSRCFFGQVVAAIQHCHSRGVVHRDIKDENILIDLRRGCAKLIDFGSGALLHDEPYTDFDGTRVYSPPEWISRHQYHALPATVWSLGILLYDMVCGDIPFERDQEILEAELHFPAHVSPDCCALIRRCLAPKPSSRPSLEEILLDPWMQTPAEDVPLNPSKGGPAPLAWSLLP
Chain of Pim-1 (P11309 whole entry): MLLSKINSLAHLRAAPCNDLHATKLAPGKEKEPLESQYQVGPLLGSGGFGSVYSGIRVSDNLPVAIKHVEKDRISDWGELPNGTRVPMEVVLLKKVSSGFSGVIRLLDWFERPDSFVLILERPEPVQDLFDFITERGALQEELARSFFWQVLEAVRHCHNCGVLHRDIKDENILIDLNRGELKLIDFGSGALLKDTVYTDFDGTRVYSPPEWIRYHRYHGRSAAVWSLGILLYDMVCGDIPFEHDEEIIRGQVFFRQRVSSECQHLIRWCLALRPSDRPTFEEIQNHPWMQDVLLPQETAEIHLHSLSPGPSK

As usually defined, the IC50 is the midpoint of a concentration-inhibition curve. For `Cc1nc2cccc(-c3cc4c([nH]3)C(CO)NC4=O)c2nc1NC(C)(C)C` (racemic) [Example 469, (R)-2-(3-(tert-butylamino)-2-methylquinoxalin-5-yl)-6-(hydroxymethyl)-5,6-dihydropyrrolo[3,4-b]pyrrol-4(1H)-one and (S)-2-(3-(tert-butylamino)-2-methylquinoxalin-5-yl)-6-(hydroxymethyl)-5,6-dihydropyrrolo[3,4-b]pyrrol-4(1H)-one], the IC50 in the assay on KMS-12-BM cell lines was found to be 119 nM.

Regarding `Cc1nc2cccc(-c3cc4c([nH]3)[C@@H](C)NC4=O)c2nc1N[C@H]1CCC[C@@H](NS(C)(=O)=O)C1` [Example 489, N-((1R,3S)-3-((3-methyl-8-((6R)-6-methyl-4-oxo-1,4,5,6-tetrahydropyrrolo[3,4-b]pyrrol-2-yl)-2-quinoxalinyl)amino)cyclohexyl)methanesulfonamide], the IC50 on Pim-1 was found to be 4 nM; at Pim-2, 2 nM.

As to `CC(C)Nc1nc2c(-c3cc4c([nH]3)[C@@H](C)NC4=O)c(F)ccc2c(=O)n1C1CC1` [Example 490, (R)-3-cyclopropyl-7-fluoro-2-(isopropylamino)-8-(6-methyl-4-oxo-1,4,5,6-tetrahydropyrrolo[3,4-b]pyrrol-2-yl)quinazolin-4(3H)-one], the values for the IC50 at Pim-1 and on Pim-2 were 0.1 nM and 0.2 nM, respectively.

As for `Cc1nc2cccc(-c3cc4c([nH]3)[C@@H](C)NC4=O)c2nc1N[C@H]1CCC[C@@H](NC(=O)[C@@H](CO)NC(=O)OC(C)(C)C)C1` [Example 491, tert-butyl((1R)-1-(hydroxymethyl)-2-(((1R,3S)-3-((3-methyl-8-((6R)-6-methyl-4-oxo-1,4,5,6-tetrahydropyrrolo[3,4-b]pyrrol-2-yl)-2-quinoxalinyl)amino)cyclohexyl)amino)-2-oxoethyl)carbamate], the IC50 at Pim-1 was 20 nM; at Pim-2, 10 nM.

With `C[C@H]1NC(=O)c2cc(-c3c(F)ccc4c(=O)n(C5CC5)c(NC5(C)CC5)nc34)[nH]c21` [Example 495, (R)-3-cyclopropyl-7-fluoro-8-(6-methyl-4-oxo-1,4,5,6-tetrahydropyrrolo[3,4-b]pyrrol-2-yl)-2-((1-methylcyclopropyl)amino)quinazolin-4(3H)-one], the half-maximal inhibitory concentration (IC50) at Pim-1 worked out at 0.046 nM; on Pim-2 it was 0.06 nM.

Turning to `C[C@H]1NC(=O)c2cc(-c3cccc4c(=O)n(C5CC5)c(NC5(C)CCC5)nc34)[nH]c21` [Example 496, (R)-3-cyclopropyl-8-(6-methyl-4-oxo-1,4,5,6-tetrahydropyrrolo[3,4-b]pyrrol-2-yl)-2-((1-methylcyclobutyl)amino)quinazolin-4(3H)-one], the half-maximal inhibitory concentration (IC50) on Pim-1 and on Pim-2 was 0.2 nM in each case.

For the compound `Cc1nc2cccc(-c3cc4c([nH]3)[C@@H](C)NC4=O)c2nc1N[C@H]1CCC[C@@H](NC(=O)[C@H](N)CO)C1` [Example 497, N-((1R,3S)-3-((3-methyl-8-((6R)-6-methyl-4-oxo-1,4,5,6-tetrahydropyrrolo[3,4-b]pyrrol-2-yl)-2-quinoxalinyl)amino)cyclohexyl)-D-serinamide], the IC50 on Pim-1 turned out to be 0.28 nM; at Pim-2, 0.16 nM.

With `C[C@H]1NC(=O)c2cc(-c3cccc4cnc(NC5(C)CC5)nc34)[nH]c21` [Example 499, (6R)-6-methyl-2-(2-((1-methylcyclopropyl)amino)-8-quinazolinyl)-5,6-dihydropyrrolo[3,4-b]pyrrol-4(1H)-one], the half-inhibitory concentration (IC50) at Pim-1 came out at 1 nM; at Pim-2, 1.6 nM.

Regarding `C[C@H]1NC(=O)c2cc(-c3cccc4c(=O)n(CCCO)c(NC(C)(C)C)nc34)[nH]c21` [Example 500, 2-(tert-butylamino)-3-(3-hydroxypropyl)-8-((6R)-6-methyl-4-oxo-1,4,5,6-tetrahydropyrrolo[3,4-b]pyrrol-2-yl)-4(3H)-quinazolinone], the results for the IC50 on Pim-1 and at Pim-2 were 0.12 nM and 0.11 nM, respectively.

With `C[C@H]1NC(=O)c2cc(-c3cccc4c(=O)n(CC(F)(F)F)c(NC(C)(C)C)nc34)[nH]c21` [Example 501, 2-(tert-butylamino)-8-((6R)-6-methyl-4-oxo-1,4,5,6-tetrahydropyrrolo[3,4-b]pyrrol-2-yl)-3-(2,2,2-trifluoroethyl)-4(3H)-quinazolinone], the values for the IC50 on Pim-1 and on Pim-2 were 0.16 nM and 0.19 nM, respectively.

On to `Cn1c(NC(C)(C)C)nc2c(-c3cc4c([nH]3)[C@@H](CCN)NC4=O)cccc2c1=O` [Example 504, (R)-8-(6-(2-aminoethyl)-4-oxo-1,4,5,6-tetrahydropyrrolo[3,4-b]pyrrol-2-yl)-2-(tert-butylamino)-3-methylquinazolin-4(3H)-one], for which the IC50 worked out at 0.04 nM at Pim-1 and 0.02 nM on Pim-2.

As to `CC[C@H]1NC(=O)c2cc(-c3cccc4c(=O)n(C)c(NC(C)(C)C)nc34)[nH]c21` [Example 505, (R)-2-(tert-butylamino)-8-(6-ethyl-4-oxo-1,4,5,6-tetrahydropyrrolo[3,4-b]pyrrol-2-yl)-3-methylquinazolin-4(3H)-one], the IC50 at Pim-1 and on Pim-2 was 0.8 nM each time.

For the compound `C[C@H]1NC(=O)c2cc(-c3cccc4c(=O)n(C5CCC5)c(NC(C)(C)C)nc34)[nH]c21` [Example 507, (R)-2-(tert-Butylamino)-3-cyclobutyl-8-(6-methyl-4-oxo-1,4,5,6-tetrahydropyrrolo[3,4-b]pyrrol-2-yl)quinazolin-4(3H)-one], the figures for the IC50 on Pim-1 and at Pim-2 were 0.3 nM and 0.6 nM, respectively.

Consider `C[C@H]1NC(=O)c2cc(-c3cccc4c(=O)n(CCCS(C)(=O)=O)c(NC(C)(C)C)nc34)[nH]c21` [Example 508, (R)-2-(tert-butylamino)-8-(6-methyl-4-oxo-1,4,5,6-tetrahydropyrrolo[3,4-b]pyrrol-2-yl)-3-(3-(methylsulfonyl)propyl)quinazolin-4(3H)-one], for which the IC50 on Pim-1 came to 0.9 nM; on Pim-2, 0.3 nM.

`CC[C@H]1NC(=O)c2cc(-c3cccc4c(=O)n(C5CC5)c(NC(C)(C)C)nc34)[nH]c21` [Example 511, (R)-2-(tert-butylamino)-3-cyclopropyl-8-(6-ethyl-4-oxo-1,4,5,6-tetrahydropyrrolo[3,4-b]pyrrol-2-yl)quinazolin-4(3H)-one]: the results for the concentration for half-maximal inhibition (IC50) at Pim-1 and on Pim-2 were 1 nM and 0.7 nM, respectively.

On to `CCn1c(NC(C)(C)C)nc2c(-c3cc4c([nH]3)[C@@H](C)NC4=O)c(F)ccc2c1=O` [Example 512, (R)-2-(tert-Butylamino)-3-ethyl-7-fluoro-8-(6-methyl-4-oxo-1,4,5,6-tetrahydropyrrolo[3,4-b]pyrrol-2-yl)quinazolin-4(3H)-one], for which the IC50 at Pim-1 was found to be 0.029 nM; at Pim-2 it was 0.0741 nM.

Take `CCn1c(NC2(C)CC2)nc2c(-c3cc4c([nH]3)[C@@H](C)NC4=O)c(F)ccc2c1=O` [Example 513, (R)-3-Ethyl-7-fluoro-8-(6-methyl-4-oxo-1,4,5,6-tetrahydropyrrolo[3,4-b]pyrrol-2-yl)-2-((1-methylcyclopropyl)amino)quinazolin-4(3H)-one]: the IC50 on Pim-1 amounted to 0.013 nM; on Pim-2, 0.0378 nM.

On to `C[C@H]1NC(=O)c2cc(-c3cccc4c(=O)n(C5CCOCC5)c(NC(C)(C)C)nc34)[nH]c21` [Example 514, (R)-2-(tert-butylamino)-8-(6-methyl-4-oxo-1,4,5,6-tetrahydropyrrolo[3,4-b]pyrrol-2-yl)-3-(tetrahydro-2H-pyran-4-yl)quinazolin-4(3H)-one], for which the figures for the IC50 at Pim-1 and on Pim-2 were 0.287 nM and 0.671 nM, respectively.
